Assay results reported in patent publication US20030139296A1 (priority 2000, published 2003).
Counter-ions that a name gives are not always drawn. Like-named read-outs stand apart in the source and are kept apart here.

Columns and labels:
defense genes in plants = details: compared among vitamin B1, vitamin B6 and vitamin C
Magnaporthe grisea KJ201 [1] = format: in vivo; details: rice blast; for Degree of the disease severity: 1 week after inoculation, scale 0~10; for Control value(%): versus Tween 80-treated rice
[2] = test system: PR1, PBZ1 and POX22.3 defense genes; details: FIG. 1
[3] = test system: PR1, PBZ1 and POX22.3 defense genes; details: in vivo
[4] = test system: PR1, PBZ1 and POX22.3 defense genes
[5] = test system: PAL, APX and HMGR defense genes; details: tomato stem soaked in aqueous solution at 50 u uM; FIG. 4
[6] = test system: Xanthomonas oryzae pv. oryzae KX021; details: bacterial leaf blight in rice; for Degree of the disease severity: distance from inoculated points to symptoms; for Control value(%): versus Tween 80-treated rice, HCl
Magnaporthe grisea KJ201 [7] = details: rice blast; for Degree of the disease severity: 28° C., 1 day, inoculated at fourth-leaf stage, scale 0~10; for Control value(%): versus distilled water-treated rice, HCl
[8] = 20 mM + Tween 80 (250 ppm) spray
[9] = 50 mM + Tween 80 (250 ppm) spray

Q: With `Cc1ncc(C[n+]2csc(CCO)c2C)c(N)n1` [vitamin B1] as the compound, how does the “Effectiveness for inducing the expression of defense genes in plants” value (defense genes in plants) read?
A: The value was “the most effective”.

Q: Which results are given for `Cc1ncc(C[n+]2csc(CCO)c2C)c(N)n1` [Vitamin B1 HCl, thiamine HCl]?
A: Degree of the disease severity (Magnaporthe grisea KJ201 [1]; 5 mM + Tween 80 (250 ppm) spray, inoculated 4 hours after treatment): 6.5 ± 0.6; Control value(%) (Magnaporthe grisea KJ201 [1]; 5 mM + Tween 80 (250 ppm) spray, HCl): 21.2 ± 7.2%; Control value(%) (Magnaporthe grisea KJ201 [1]; 5 mM + Tween 80 (250 ppm) spray, listed as vitamin B1 hydrochloride, HCl): not more than 30%; Degree of the disease severity (Magnaporthe grisea KJ201 [1]; 10 mM + Tween 80 (250 ppm) spray): 5.8 ± 1.5; Control value(%) (Magnaporthe grisea KJ201 [1]; 10 mM + Tween 80 (250 ppm) spray, HCl): 30.3 ± 18.2%; Control value(%) (Magnaporthe grisea KJ201 [1]; 10 mM + Tween 80 (250 ppm) spray, listed as vitamin B1 hydrochloride, HCl): not more than 30%; Degree of the disease severity (Magnaporthe grisea KJ201 [1]; [8]): 2.3 ± 1.4; Control value(%) (Magnaporthe grisea KJ201 [1]; [8]): 72.7 ± 17.0%; Degree of the disease severity (Magnaporthe grisea KJ201 [1]; [9]): 2.8 ± 1.5; Control value(%) (Magnaporthe grisea KJ201 [1]; [9]): 66.7 ± 18.2%; Degree of the disease severity (Magnaporthe grisea KJ201 [1]; 100 mM + Tween 80 (250 ppm) spray): 1.1 ± 0.8; Control value(%) (Magnaporthe grisea KJ201 [1]; 100 mM + Tween 80 (250 ppm) spray, HCl): 87.3 ± 9.7%; Control value(%) (Magnaporthe grisea KJ201 [1]; 100 mM + Tween 80 (250 ppm) spray, listed as vitamin B1 hydrochloride, HCl): about 87%; Expression of defense genes compared to groups A and B ([2]; rice treated with 50 mM and then inoculated with rice blast fungus (group C)): considerably increased; Time at which expression of defense genes was detected ([2]; rice treated with 50 mM only (group B)): 24 h; Time after inoculation at which expression of all three defense genes was detected ([2]; rice treated with 50 mM, inoculated with rice blast fungus 24 hours later (group C)): 24 h; Time after treatment at which all defense genes tested were induced to express [3]: 4 h; Time after inoculation at which expression of all three defense genes was detected ([4]; in vivo): 24 h; Time after treatment at which expression of defense genes was detected ([4]; in vivo): 24 h; Expression of defense genes compared to groups A and B ([4]; rice treated with 50 mM and then inoculated with leaf blight bacteria (group C), FIG. 3): considerably increased; Time by which all the defense genes were expressed [5]: ≤ 1 h; Degree of the disease severity ([6]; 5 mM + Tween 80 (250 ppm) spray, 1 week after inoculation): 8.7 ± 0.6; Control value(%) ([6]; 5 mM + Tween 80 (250 ppm)): 10.3 ± 6.2%; Control value(%) ([6]; 5 mM + Tween 80 (250 ppm), listed as vitamin B1 hydrochloride): about 30%; Degree of the disease severity ([6]; 10 mM + Tween 80 (250 ppm) spray, 1 week): 4.2 ± 1.4; Control value(%) ([6]; 10 mM + Tween 80 (250 ppm)): 56.3 ± 14.4%; Control value(%) ([6]; 10 mM + Tween 80 (250 ppm), listed as vitamin B1 hydrochloride): not less than 56%; Control value(%) ([6]; 20 mM + Tween 80 (250 ppm)): 68.3 ± 25.9%; Control value(%) ([6]; 20 mM + Tween 80 (250 ppm), listed as vitamin B1 hydrochloride): ≥ 68%; Degree of the disease severity ([6]; 50 mM + Tween 80 (250 ppm) spray, 1 week): 0.2 ± 0.3; Control value(%) ([6]; 50 mM + Tween 80 (250 ppm)): 97.6 ± 3.1%; Control value(%) ([6]; 50 mM + Tween 80 (250 ppm), listed as vitamin B1 hydrochloride): ≥ 97%; Degree of the disease severity ([6]; 100 mM + Tween 80 (250 ppm) spray, 1 week): 0.3 ± 0.1; Control value(%) ([6]; 100 mM + Tween 80 (250 ppm)): 97.2 ± 1.0%; Control value(%) ([6]; 100 mM + Tween 80 (250 ppm), listed as vitamin B1 hydrochloride): ≥ 97%; Degree of the disease severity (Magnaporthe grisea KJ201 [7]; seeds soaked at 20 mM): 5.4 ± 3.2; Control value(%) (Magnaporthe grisea KJ201 [7]; seeds soaked at 20 mM): 44.4 ± 32.8%; Control value(%) (Magnaporthe grisea KJ201 [7]; seeds soaked at 20 mM, listed as vitamin B1 hydrochloride): 44%; Degree of the disease severity (Magnaporthe grisea KJ201 [7]; seeds soaked at 50 mM): 2.3 ± 1.9; Control value(%) (Magnaporthe grisea KJ201 [7]; seeds soaked at 50 mM): 76.8 ± 19.5%; Control value(%) (Magnaporthe grisea KJ201 [7]; seeds soaked at 50 mM, listed as vitamin B1 hydrochloride): 77%
